Drawing on ChEMBL document CHEMBL5338820, “Discovery and Design of Novel Cyclic Peptides as Specific Inhibitors Targeting CCN2 and Disrupting CCN2/EGFR Interaction for Kidney Fibrosis Treatment” (J Med Chem, 2023), this text covers inhibition for 21 compounds.

A word on the inhibition: it is the share of the control response that was lost under treatment.

Molecules are shown by their SMILES. The source made the active and inactive calls. No cut-off for these calls is given here. Peptide text beside a SMILES is read from it.

For assay [1], the target named is T1, CCN2-EGFR (Homo sapiens) (UniProt P00533+P29279). As to the kind of experiment: Inhibition of His-tagged full length human CCN2 FL domain/human Fc-tagged EGFR protein-protein interaction using TMB as chromogenic substrate at 100 uM incubated for 140 mins by microplate reader assay relative to control.
Assay [2] has as its target T1, CCN2-EGFR (Homo sapiens). Put plainly: Inhibition of His-tagged full length human CCN2 CT domain/human Fc-tagged EGFR protein-protein interaction using TMB as chromogenic substrate at 100 uM incubated for 140 mins by microplate reader assay relative to control.
Assay [3] has as its target T2, CCN family member 2 (Homo sapiens) (UniProt P29279).
T2 sequence (whole entry): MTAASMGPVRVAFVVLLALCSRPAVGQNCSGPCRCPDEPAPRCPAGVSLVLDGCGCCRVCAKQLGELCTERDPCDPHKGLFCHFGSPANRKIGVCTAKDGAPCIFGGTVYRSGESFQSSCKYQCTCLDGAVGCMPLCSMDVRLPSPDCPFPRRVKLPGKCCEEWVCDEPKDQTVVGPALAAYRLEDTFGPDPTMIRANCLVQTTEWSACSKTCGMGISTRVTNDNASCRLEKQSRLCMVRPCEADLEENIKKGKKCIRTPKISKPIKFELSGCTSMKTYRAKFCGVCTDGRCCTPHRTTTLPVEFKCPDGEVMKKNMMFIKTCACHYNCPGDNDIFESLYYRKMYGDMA
As to the kind of experiment: Inhibition of recombinant human CCN2 CT domain expressed in human […] cells assessed as reduction in fibronectin synthesis at 100 uM incubated for 24 hrs by Western blotting assay. Type of assay: cell-based. Background: A western blot detects proteins with antibodies after separation by electrophoresis.

Assay [4] deals with T2, CCN family member 2 (Homo sapiens). As to the kind of experiment: Inhibition of recombinant human CCN2 CT domain expressed in human […] cells assessed as reduction in COL1A1 synthesis at 100 uM incubated for 24 hrs by Western blotting assay. Type of assay: cell-based.

T1 sequence (P00533 whole entry, looked up, one chain of several, the tested form may be a part): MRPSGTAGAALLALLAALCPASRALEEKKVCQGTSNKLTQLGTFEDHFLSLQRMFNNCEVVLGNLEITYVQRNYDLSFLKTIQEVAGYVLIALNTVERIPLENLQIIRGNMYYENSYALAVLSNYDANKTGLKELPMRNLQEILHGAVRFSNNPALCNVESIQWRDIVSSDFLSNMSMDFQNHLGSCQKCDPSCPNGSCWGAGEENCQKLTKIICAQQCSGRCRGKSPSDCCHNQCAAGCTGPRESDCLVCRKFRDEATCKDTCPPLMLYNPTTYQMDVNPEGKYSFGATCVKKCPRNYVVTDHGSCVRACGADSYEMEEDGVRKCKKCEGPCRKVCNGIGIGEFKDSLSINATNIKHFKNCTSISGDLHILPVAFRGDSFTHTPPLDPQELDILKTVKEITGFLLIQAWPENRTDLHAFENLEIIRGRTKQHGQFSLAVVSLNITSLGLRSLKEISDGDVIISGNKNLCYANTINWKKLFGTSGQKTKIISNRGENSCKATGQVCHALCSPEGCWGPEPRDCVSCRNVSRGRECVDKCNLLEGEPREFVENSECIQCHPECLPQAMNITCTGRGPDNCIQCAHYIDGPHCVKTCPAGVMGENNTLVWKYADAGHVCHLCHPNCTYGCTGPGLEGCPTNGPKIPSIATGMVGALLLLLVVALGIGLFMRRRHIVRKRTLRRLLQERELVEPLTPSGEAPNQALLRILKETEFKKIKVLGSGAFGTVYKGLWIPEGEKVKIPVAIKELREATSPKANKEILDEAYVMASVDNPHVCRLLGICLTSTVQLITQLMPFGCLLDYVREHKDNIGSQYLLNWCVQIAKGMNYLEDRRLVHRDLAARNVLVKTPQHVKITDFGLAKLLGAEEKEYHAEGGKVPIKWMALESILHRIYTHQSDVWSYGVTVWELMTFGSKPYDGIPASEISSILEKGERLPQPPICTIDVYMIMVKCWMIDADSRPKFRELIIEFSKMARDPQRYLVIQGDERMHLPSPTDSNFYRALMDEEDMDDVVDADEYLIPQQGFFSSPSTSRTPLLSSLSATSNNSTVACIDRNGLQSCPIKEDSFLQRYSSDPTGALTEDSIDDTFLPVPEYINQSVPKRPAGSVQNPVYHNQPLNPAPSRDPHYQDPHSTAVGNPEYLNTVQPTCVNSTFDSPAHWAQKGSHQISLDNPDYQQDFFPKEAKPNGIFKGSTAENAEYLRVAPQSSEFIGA

For `C[C@H](N)C(=O)N[C@@H](CC(=O)O)C(=O)N[C@H](C(=O)N[C@H](C(=O)N[C@@H](Cc1c[nH]cn1)C(=O)N[C@@H](Cc1c[nH]cn1)C(=O)N[C@@H](CCCNC(=N)N)C(=O)N1CCC[C@H]1C(=O)N[C@@H](Cc1c[nH]c2ccccc12)C(=O)N[C@H](C(N)=O)[C@@H](C)O)[C@@H](C)O)[C@@H](C)O` (H-ADTTHHRPWT-NH2), the inhibition in assay [1] amounted to 70.6%; in assay [2], 61.9%. Besides, the inhibition entry in assay [3] and in assay [4] was “Active” throughout.

`C[C@@H](O)[C@H](N)C(=O)N[C@@H](Cc1c[nH]cn1)C(=O)N[C@@H](Cc1c[nH]cn1)C(=O)N[C@@H](CCCNC(=N)N)C(=O)N[C@@H](CCCCN)C(=O)N[C@@H](Cc1c[nH]c2ccccc12)C(=O)N[C@H](C(N)=O)[C@@H](C)O` (H-THHRKWT-NH2): the inhibition in assay [1] stood at 15%; in assay [2] it was 11%. Also, the inhibition result in assay [3] and in assay [4] was “inactive” each time.

Take `C[C@@H](O)[C@H](N)C(=O)N[C@@H](Cc1c[nH]cn1)C(=O)N[C@@H](Cc1c[nH]cn1)C(=O)N[C@@H](CCCNC(=N)N)C(=O)N1CCC[C@H]1C(=O)N[C@@H](Cc1c[nH]c2ccccc12)C(=O)N[C@H](C(N)=O)[C@@H](C)O` (H-THHRPWT-NH2): the inhibition came out at 66.6% in assay [1] and 62% in assay [2]. The inhibition result in assay [3] and in assay [4] was “Active” throughout.

On to `C[C@@H](O)[C@H](NC(=O)[C@H](Cc1c[nH]c2ccccc12)NC(=O)[C@@H]1CCCN1C(=O)[C@H](CCCNC(=N)N)NC(=O)[C@@H](N)Cc1c[nH]cn1)C(N)=O` (H-HRPWT-NH2), for which the inhibition amounted to 13.9% in assay [1] and 7.9% in assay [2]. Besides, the inhibition result in assay [3] and in assay [4] was “inactive” in each case.

As to `C[C@@H](O)[C@H](NC(=O)[C@H](Cc1c[nH]c2ccccc12)NC(=O)[C@@H]1CCCN1C(=O)[C@H](CCCNC(=N)N)NC(=O)[C@H](Cc1c[nH]cn1)NC(=O)[C@@H](N)Cc1c[nH]cn1)C(N)=O` (H-HHRPWT-NH2), the inhibition was determined as 16% in assay [1] and 9.4% in assay [2]. The inhibition result in assay [3] and in assay [4] was “inactive” throughout.

As for `C[C@@H](O)[C@H](N)C(=O)N[C@@H](Cc1c[nH]cn1)C(=O)N[C@@H](CCC(=O)O)C(=O)N[C@@H](CCCNC(=N)N)C(=O)N1CCC[C@H]1C(=O)N[C@@H](Cc1c[nH]c2ccccc12)C(=O)N[C@H](C(N)=O)[C@@H](C)O` (H-THERPWT-NH2), the inhibition in assay [1] is 15.5%; in assay [2] it was 12.1%.

With `C[C@@H](O)[C@H](N)C(=O)N[C@@H](Cc1c[nH]cn1)C(=O)N[C@@H](Cc1c[nH]cn1)C(=O)N[C@@H](CCC(=O)O)C(=O)N1CCC[C@H]1C(=O)N[C@@H](Cc1c[nH]c2ccccc12)C(=O)N[C@H](C(N)=O)[C@@H](C)O` (H-THHEPWT-NH2), the inhibition in assay [1] was 12.4%; in assay [2] it was 61.9%.

Take `C[C@@H](O)[C@H](N)C(=O)N[C@@H](CCC(N)=O)C(=O)N[C@@H](Cc1c[nH]cn1)C(=O)N[C@@H](CCCNC(=N)N)C(=O)N1CCC[C@H]1C(=O)N[C@@H](Cc1c[nH]c2ccccc12)C(=O)N[C@H](C(N)=O)[C@@H](C)O` (H-TQHRPWT-NH2): the figures for the inhibition in assay [1] and in assay [2] were 6.8% and 11.8%, respectively.

As for `C[C@@H](O)[C@H](N)C(=O)N[C@@H](CCC(=O)O)C(=O)N[C@@H](Cc1c[nH]cn1)C(=O)N[C@@H](CCCNC(=N)N)C(=O)N1CCC[C@H]1C(=O)N[C@@H](Cc1c[nH]c2ccccc12)C(=O)N[C@H](C(N)=O)[C@@H](C)O` (H-TEHRPWT-NH2), the inhibition was 12.5% in assay [1] and 11.5% in assay [2].

With `C[C@@H](O)[C@H](N)C(=O)N[C@@H](Cc1c[nH]cn1)C(=O)N[C@@H](CCCCN)C(=O)N[C@@H](CCCNC(=N)N)C(=O)N1CCC[C@H]1C(=O)N[C@@H](Cc1c[nH]c2ccccc12)C(=O)N[C@H](C(N)=O)[C@@H](C)O` (H-THKRPWT-NH2), the inhibition is 59.7% in assay [1] and 63.4% in assay [2]. The inhibition entry in assay [3] and in assay [4] was “Active” in each case.

On to `CC(C)C[C@H](NC(=O)[C@@H](N)CC(C)C)C(=O)N[C@@H](C)C(=O)N[C@@H](C)C(=O)N[C@H](C(=O)N[C@H](C(=O)N[C@@H](Cc1c[nH]cn1)C(=O)N[C@@H](Cc1c[nH]cn1)C(=O)N[C@@H](CCCNC(=N)N)C(=O)N1CCC[C@H]1C(=O)N[C@@H](Cc1c[nH]c2ccccc12)C(=O)N[C@H](C(N)=O)[C@@H](C)O)[C@@H](C)O)[C@@H](C)O` (H-LLAATTHHRPWT-NH2), for which the inhibition in assay [1] stood at 61.4%; in assay [2], 76%.

Regarding `CC(C)C[C@H](NC(=O)[C@H](CCCNC(=N)N)NC(=O)[C@H](Cc1c[nH]cn1)NC(=O)[C@H](Cc1c[nH]cn1)NC(=O)[C@@H](N)[C@@H](C)O)C(=O)N[C@@H](Cc1c[nH]c2ccccc12)C(=O)N[C@H](C(N)=O)[C@@H](C)O` (H-THHRLWT-NH2), the inhibition in assay [1] was 37.1%; in assay [2], 43.6%.

As for `C[C@@H](O)[C@H](N)C(=O)N[C@@H](Cc1c[nH]cn1)C(=O)N[C@@H](Cc1c[nH]cn1)C(=O)N[C@@H](CCC(N)=O)C(=O)N1CCC[C@H]1C(=O)N[C@@H](Cc1c[nH]c2ccccc12)C(=O)N[C@H](C(N)=O)[C@@H](C)O` (H-THHQPWT-NH2), the inhibition amounted to 2.1% in assay [1] and 8.1% in assay [2].

On to `C[C@@H](O)[C@H](N)C(=O)N[C@H](C(=O)N[C@@H](Cc1c[nH]cn1)C(=O)N[C@@H](Cc1c[nH]cn1)C(=O)N[C@@H](CCCNC(=N)N)C(=O)N1CCC[C@H]1C(=O)N[C@@H](Cc1c[nH]c2ccccc12)C(=O)N[C@H](C(N)=O)[C@@H](C)O)[C@@H](C)O` (H-TTHHRPWT-NH2), for which the inhibition in assay [1] is 68.1%; in assay [2] it was 60%. The inhibition entry in assay [3] and in assay [4] was “Active” throughout.

In the case of `C[C@@H](O)[C@H](N)C(=O)N[C@@H](Cc1c[nH]cn1)C(=O)N[C@@H](Cc1c[nH]cn1)C(=O)N[C@@H](CCCCN)C(=O)N1CCC[C@H]1C(=O)N[C@@H](Cc1c[nH]c2ccccc12)C(=O)N[C@H](C(N)=O)[C@@H](C)O` (H-THHKPWT-NH2), the inhibition is 14.4% in assay [1] and 65.8% in assay [2]. Further, the inhibition result in assay [3] and in assay [4] was “inactive” in each case.

Consider `CC(C)C[C@H](NC(=O)[C@H](C)N)C(=O)N[C@@H](C)C(=O)N[C@@H](CC(=O)O)C(=O)N[C@H](C(=O)N[C@H](C(=O)N[C@@H](Cc1c[nH]cn1)C(=O)N[C@@H](Cc1c[nH]cn1)C(=O)N[C@@H](CCCNC(=N)N)C(=O)N1CCC[C@H]1C(=O)N[C@@H](Cc1c[nH]c2ccccc12)C(=O)N[C@H](C(N)=O)[C@@H](C)O)[C@@H](C)O)[C@@H](C)O` (H-ALADTTHHRPWT-NH2), for which the inhibition in assay [1] turned out to be 58.7%; in assay [2], 70.8%.

With `C[C@@H](O)[C@H](NC(=O)[C@H](Cc1c[nH]c2ccccc12)NC(=O)[C@@H]1CCCN1C(=O)[C@H](CCCNC(=N)N)NC(=O)[C@H](Cc1c[nH]cn1)NC(=O)[C@H](Cc1c[nH]cn1)NC(=O)[C@@H](NC(=O)[C@@H](NC(=O)[C@@H](N)CC(=O)O)[C@@H](C)O)[C@@H](C)O)C(N)=O` (H-DTTHHRPWT-NH2), the inhibition in assay [1] was determined as 63.7%; in assay [2] it was 65.8%. Also, the inhibition result in assay [3] and in assay [4] was “Active” in each case.

Take `CC(C)C[C@H](NC(=O)[C@@H](N)CC(C)C)C(=O)N[C@@H](C)C(=O)N[C@@H](CC(=O)O)C(=O)N[C@H](C(=O)N[C@H](C(=O)N[C@@H](Cc1c[nH]cn1)C(=O)N[C@@H](Cc1c[nH]cn1)C(=O)N[C@@H](C)C(=O)N1CCC[C@H]1C(=O)N[C@@H](Cc1c[nH]c2ccccc12)C(=O)N[C@H](C(N)=O)[C@@H](C)O)[C@@H](C)O)[C@@H](C)O` (H-LLADTTHHAPWT-NH2): the inhibition amounted to 57.8% in assay [1] and 72.5% in assay [2].

On to `C[C@@H](O)[C@H](N)C(=O)N[C@@H](Cc1c[nH]cn1)C(=O)N[C@@H](Cc1c[nH]cn1)C(=O)N[C@@H](CCCNC(=N)N)C(=O)N[C@@H](CCC(=O)O)C(=O)N[C@@H](Cc1c[nH]c2ccccc12)C(=O)N[C@H](C(N)=O)[C@@H](C)O` (H-THHREWT-NH2), for which the inhibition in assay [1] was 19.6%; in assay [2] it was 11.1%.

On to `CC(C)C[C@H](NC(=O)[C@@H](N)CC(C)C)C(=O)N[C@@H](C)C(=O)N[C@@H](CC(=O)O)C(=O)N[C@H](C(=O)N[C@H](C(=O)N[C@@H](Cc1c[nH]cn1)C(=O)N[C@@H](Cc1c[nH]cn1)C(=O)N[C@@H](CCCNC(=N)N)C(=O)N1CCC[C@H]1C(=O)N[C@@H](C)C(=O)N[C@H](C(N)=O)[C@@H](C)O)[C@@H](C)O)[C@@H](C)O` (H-LLADTTHHRPAT-NH2), for which the inhibition in assay [1] was determined as 8.7%; in assay [2], 10.7%.

`CC(C)C[C@H](NC(=O)[C@@H](N)CC(C)C)C(=O)N[C@@H](C)C(=O)N[C@@H](CC(=O)O)C(=O)N[C@@H](C)C(=O)N[C@H](C(=O)N[C@@H](Cc1c[nH]cn1)C(=O)N[C@@H](Cc1c[nH]cn1)C(=O)N[C@@H](CCCNC(=N)N)C(=O)N1CCC[C@H]1C(=O)N[C@@H](Cc1c[nH]c2ccccc12)C(=O)N[C@H](C(N)=O)[C@@H](C)O)[C@@H](C)O` (H-LLADATHHRPWT-NH2): the inhibition in assay [1] is 59%; in assay [2], 70.7%.
